Data taken from patent US20240158370A1, “CK1 alpha AND DUAL CK1 alpha / GSPT1 DEGRADING COMPOUNDS” (Innovo Therapeutics, Inc., priority 2022, published 2024).

Tests used:
GSPT1 = GSPT1 (Homo sapiens, UniProt P15170+Q96SW2); experiment: HiBiT degradation assay, GSPT1, Procedure A; format: cell-based; set-up: HiBit-GSPT1 KI HEK293(LgBit) Cells; host or cells: HEK293(LgBit) knock-in cells; conditions: six hours
Outline: (§1)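 Luminescence from HiBiT lytic detection reports remaining tagged protein after cells sit six hours at 37° C with compound across ten concentrations (10 μM down to 0.005 μM, 0.1% DMSO). A 4-parameter curve fit gives DC50 and Ymin.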

CK1α = target: T1, CK1α (Homo sapiens, UniProt P48729+Q96SW2); experiment: HiBiT degradation assay, CK1α, Procedure A; format: cell-based; conditions: six hours
T1 construct: CSNK1A1-HiBit KI HEK293(LgBit) Cells; host or cells: HEK293(LgBit) knock-in cells
T1 sequence (P48729 whole entry): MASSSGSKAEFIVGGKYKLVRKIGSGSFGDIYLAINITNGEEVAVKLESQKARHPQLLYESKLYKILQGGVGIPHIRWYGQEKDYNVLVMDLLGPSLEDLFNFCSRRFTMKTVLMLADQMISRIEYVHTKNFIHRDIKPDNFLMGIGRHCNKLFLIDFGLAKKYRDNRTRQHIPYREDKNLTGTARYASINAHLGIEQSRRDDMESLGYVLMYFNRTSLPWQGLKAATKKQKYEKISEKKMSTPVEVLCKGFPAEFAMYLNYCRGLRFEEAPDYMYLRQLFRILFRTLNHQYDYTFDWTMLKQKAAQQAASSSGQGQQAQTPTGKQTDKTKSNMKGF
T1 sequence (Q96SW2 whole entry): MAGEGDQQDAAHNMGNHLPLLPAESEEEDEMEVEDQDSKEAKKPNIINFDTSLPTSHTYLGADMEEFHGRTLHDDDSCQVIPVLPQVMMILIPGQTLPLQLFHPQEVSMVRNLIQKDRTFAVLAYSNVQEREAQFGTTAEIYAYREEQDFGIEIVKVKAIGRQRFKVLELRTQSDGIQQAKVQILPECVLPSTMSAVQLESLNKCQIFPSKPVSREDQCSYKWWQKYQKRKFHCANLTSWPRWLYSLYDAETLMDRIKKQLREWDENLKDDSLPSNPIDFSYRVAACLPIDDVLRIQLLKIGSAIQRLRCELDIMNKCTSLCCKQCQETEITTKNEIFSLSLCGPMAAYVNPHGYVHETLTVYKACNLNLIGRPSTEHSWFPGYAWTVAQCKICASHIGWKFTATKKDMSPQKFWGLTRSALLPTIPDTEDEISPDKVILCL
T1 sequence (Q16531 whole entry partner): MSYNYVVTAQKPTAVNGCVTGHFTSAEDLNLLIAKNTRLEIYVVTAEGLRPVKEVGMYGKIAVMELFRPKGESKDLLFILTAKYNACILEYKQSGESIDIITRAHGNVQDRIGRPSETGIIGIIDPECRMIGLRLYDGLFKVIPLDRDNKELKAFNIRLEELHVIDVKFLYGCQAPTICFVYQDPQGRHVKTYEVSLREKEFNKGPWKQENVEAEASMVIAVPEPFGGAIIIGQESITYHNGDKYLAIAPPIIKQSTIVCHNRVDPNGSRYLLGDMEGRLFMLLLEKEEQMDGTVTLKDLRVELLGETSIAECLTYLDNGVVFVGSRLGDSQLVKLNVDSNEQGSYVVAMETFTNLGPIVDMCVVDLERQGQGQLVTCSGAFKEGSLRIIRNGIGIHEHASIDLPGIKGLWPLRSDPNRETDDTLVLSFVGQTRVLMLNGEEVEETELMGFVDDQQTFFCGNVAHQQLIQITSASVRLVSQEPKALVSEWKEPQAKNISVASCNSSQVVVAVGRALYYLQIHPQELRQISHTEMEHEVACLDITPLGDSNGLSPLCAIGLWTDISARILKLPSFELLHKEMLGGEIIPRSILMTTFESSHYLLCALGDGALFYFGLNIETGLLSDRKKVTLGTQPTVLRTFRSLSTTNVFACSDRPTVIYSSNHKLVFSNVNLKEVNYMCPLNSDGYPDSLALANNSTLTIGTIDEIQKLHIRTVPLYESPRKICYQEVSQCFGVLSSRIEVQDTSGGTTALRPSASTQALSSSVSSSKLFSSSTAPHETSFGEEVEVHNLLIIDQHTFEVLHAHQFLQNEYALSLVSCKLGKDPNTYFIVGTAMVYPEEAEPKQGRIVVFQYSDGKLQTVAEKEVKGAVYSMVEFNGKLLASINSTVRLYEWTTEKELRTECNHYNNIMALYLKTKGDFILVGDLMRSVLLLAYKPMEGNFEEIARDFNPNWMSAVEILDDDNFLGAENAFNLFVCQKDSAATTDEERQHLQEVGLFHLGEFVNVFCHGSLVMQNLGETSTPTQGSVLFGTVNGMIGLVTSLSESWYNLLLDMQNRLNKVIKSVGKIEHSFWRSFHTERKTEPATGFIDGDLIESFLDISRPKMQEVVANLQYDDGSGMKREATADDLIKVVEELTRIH
Outline: as §1

GSPT1, sequence (P15170 whole entry): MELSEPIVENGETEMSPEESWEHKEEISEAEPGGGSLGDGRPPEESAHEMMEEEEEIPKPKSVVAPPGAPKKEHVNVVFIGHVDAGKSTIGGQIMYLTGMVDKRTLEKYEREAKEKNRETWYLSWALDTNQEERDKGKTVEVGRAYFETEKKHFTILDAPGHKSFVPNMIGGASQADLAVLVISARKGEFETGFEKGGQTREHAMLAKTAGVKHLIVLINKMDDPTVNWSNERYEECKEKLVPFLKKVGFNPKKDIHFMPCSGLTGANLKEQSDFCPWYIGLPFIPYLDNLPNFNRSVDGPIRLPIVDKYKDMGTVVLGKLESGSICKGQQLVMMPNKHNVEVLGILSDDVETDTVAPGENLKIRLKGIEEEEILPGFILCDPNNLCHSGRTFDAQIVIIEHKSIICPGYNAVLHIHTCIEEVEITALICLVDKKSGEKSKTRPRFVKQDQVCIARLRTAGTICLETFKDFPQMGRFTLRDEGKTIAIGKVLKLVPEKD
GSPT1, sequence (Q96SW2 whole entry): as the sequence (Q96SW2 whole entry) above
GSPT1, sequence (Q16531 whole entry partner): as the sequence (Q16531 whole entry partner) above

Row | DC50 (GSPT1) [nM] | GSPT1 Ymin (GSPT1) | CK1α Ymin (CK1α) | DC50 (CK1α) [nM] | Compound
1 | ≥ 25 | F (F = >75-100% remaining) | E (E = >25-75% remaining) | < 25 | Cn1cnc(-c2ccc3c(c2)CN(C2CCC(=O)NC2=O)C3=O)c1-c1cnc2c(ccn2C)c1 (stereo not shown) [Example 499]
2 | ≥ 25 | F (F = >75-100% remaining) | C (C = 0-10% remaining) | < 25 | Cn1cnc(-c2ccc3c(c2)CN(C2CCC(=O)NC2=O)C3=O)c1-c1ccc2ncn(C)c2c1 (stereo not shown) [Example 500]
3 | ≥ 25 | F (F = >75-100% remaining) | C (C = 0-10% remaining) | < 25 | Cc1nc2ccc(-c3c(-c4ccc5c(c4)CN(C4CCC(=O)NC4=O)C5=O)ncn3C)cc2[nH]1 (stereo not shown) [Example 501]
4 | < 25 | E (E = >25-75% remaining) | C (C = 0-10% remaining) | < 25 | Cn1cnc(-c2ccc3c(c2)CN(C2CCC(=O)NC2=O)C3=O)c1-c1ccc2ncsc2c1 (stereo not shown) [Example 502]
5 | ≥ 25 | F (F = >75-100% remaining) | E (E = >25-75% remaining) | ≥ 25 | Cn1cnc(-c2ccc3c(c2)CN(C2CCC(=O)NC2=O)C3=O)c1-c1cnn(Cc2cccnc2)c1 (stereo not shown) [Example 503]
6 | ≥ 25 | F (F = >75-100% remaining) | D (D = >10- 25% remaining) | ≥ 25 | Cn1cnc(-c2ccc3c(c2)CN(C2CCC(=O)NC2=O)C3=O)c1-c1cc[nH]n1 (stereo not shown) [Example 504]
7 | < 25 | F (F = >75-100% remaining) | D (D = >10- 25% remaining) | < 25 | Cn1ccc(-c2c(-c3ccc4c(c3)CN(C3CCC(=O)NC3=O)C4=O)ncn2C)n1 (stereo not shown) [Example 505]
8 | < 25 | E (E = >25-75% remaining) | C (C = 0-10% remaining) | < 25 | Cn1cnc(-c2ccc3c(c2)CN(C2CCC(=O)NC2=O)C3=O)c1-c1cccs1 (stereo not shown) [Example 506]
9 | ≥ 25 | F (F = >75-100% remaining) | E (E = >25-75% remaining) | < 25 | Cc1ncccc1-c1c(-c2ccc3c(c2)CN(C2CCC(=O)NC2=O)C3=O)ncn1C (stereo not shown) [Example 507]
10 | ≥ 25 | F (F = >75-100% remaining) | D (D = >10- 25% remaining) | < 25 | COc1ccsc1-c1c(-c2ccc3c(c2)CN(C2CCC(=O)NC2=O)C3=O)ncn1C (stereo not shown) [Example 508]
11 | < 25 | E (E = >25-75% remaining) | D (D = >10- 25% remaining) | < 25 | Cn1cnc(-c2ccc3c(c2)CN(C2CCC(=O)NC2=O)C3=O)c1-c1c[nH]c2ccccc12 (stereo not shown) [Example 509]
12 | ≥ 25 | E (E = >25-75% remaining) | C (C = 0-10% remaining) | < 25 | Cn1cnc(-c2ccc3c(c2)CN(C2CCC(=O)NC2=O)C3=O)c1-c1ccc2[nH]ncc2c1 (stereo not shown) [Example 510]
13 | ≥ 25 | F (F = >75-100% remaining) | D (D = >10- 25% remaining) | < 25 | Cn1cnc(-c2ccc3c(c2)CN(C2CCC(=O)NC2=O)C3=O)c1-c1cnn(C2CCC2)c1 (stereo not shown) [Example 511]
14 | < 25 | F (F = >75-100% remaining) | C (C = 0-10% remaining) | < 25 | Cc1c[nH]c2cc(-c3c(-c4ccc5c(c4)CN(C4CCC(=O)NC4=O)C5=O)ncn3C)ccc12 (stereo not shown) [Example 512]

Further lines, the molecule ahead of its results:

Row | Compound | DC50 (GSPT1) [nM] | GSPT1 Ymin (GSPT1) | CK1α Ymin (CK1α) | DC50 (CK1α) [nM]
15 | COc1ccsc1-c1c(-c2ccc3c(c2)CN(C2CCC(=O)NC2=O)C3=O)cnn1C (stereo not shown) [Example 473] | ≥ 25 | F (F = >75-100% remaining) | E (E = >25-75% remaining) | < 25
16 | Cn1ncc(-c2ccc3c(c2)CN(C2CCC(=O)NC2=O)C3=O)c1-c1c[nH]c2ccccc12 (stereo not shown) [Example 474] | ≥ 25 | F (F = >75-100% remaining) | D (D = >10- 25% remaining) | < 25
17 | Cn1ncc(-c2ccc3c(c2)CN(C2CCC(=O)NC2=O)C3=O)c1-c1cnn(C2CCC2)c1 (stereo not shown) [Example 475] | < 25 | F (F = >75-100% remaining) | E (E = >25-75% remaining) | ≥ 25
18 | Cn1ncc(-c2ccc3c(c2)CN(C2CCC(=O)NC2=O)C3=O)c1-c1ccc2c(c1)ncn2C (stereo not shown) [Example 476] | ≥ 25 | F (F = >75-100% remaining) | D (D = >10- 25% remaining) | ≥ 25
19 | Cn1ncc(-c2ccc3c(c2)CN(C2CCC(=O)NC2=O)C3=O)c1-c1ccc2c(c1)CCCO2 (stereo not shown) [Example 477] | ≥ 25 | F (F = >75-100% remaining) | C (C = 0-10% remaining) | < 25
20 | Cn1ncc(-c2ccc3c(c2)CN(C2CCC(=O)NC2=O)C3=O)c1-c1ccc2sccc2c1 (stereo not shown) [Example 478] | ≥ 25 | F (F = >75-100% remaining) | D (D = >10- 25% remaining) | < 25
21 | Cn1ncc(-c2ccc3c(c2)CN(C2CCC(=O)NC2=O)C3=O)c1-c1cccc(-n2cccn2)c1 (stereo not shown) [Example 479] | ≥ 25 | F (F = >75-100% remaining) | E (E = >25-75% remaining) | < 25
22 | Cn1ncc(-c2ccc3c(c2)CN(C2CCC(=O)NC2=O)C3=O)c1-c1cnn(Cc2ccccc2)c1 (stereo not shown) [Example 480] | ≥ 25 | F (F = >75-100% remaining) | E (E = >25-75% remaining) | ≥ 25
23 | Cc1c(-c2c(-c3ccc4c(c3)CN(C3CCC(=O)NC3=O)C4=O)cnn2C)cnn1-c1ccccc1 (stereo not shown) [Example 481] | < 25 | F (F = >75-100% remaining) | E (E = >25-75% remaining) | ≥ 25
24 | Cn1cnc(-c2ccc3c(c2)CN(C2CCC(=O)NC2=O)C3=O)c1-c1cccnc1 (stereo not shown) [Example 482] | < 25 | E (E = >25-75% remaining) | D (D = >10- 25% remaining) | < 25
25 | Cc1occc1-c1c(-c2ccc3c(c2)CN(C2CCC(=O)NC2=O)C3=O)ncn1C (stereo not shown) [Example 483] | < 25 | F (F = >75-100% remaining) | D (D = >10- 25% remaining) | < 25
26 | Cn1cnc(-c2ccc3c(c2)CN(C2CCC(=O)NC2=O)C3=O)c1-c1cnc(N)nc1 (stereo not shown) [Example 485] | ≥ 25 | F (F = >75-100% remaining) | E (E = >25-75% remaining) | ≥ 25
27 | COc1cncc(-c2c(-c3ccc4c(c3)CN(C3CCC(=O)NC3=O)C4=O)ncn2C)c1 (stereo not shown) [Example 486] | < 25 | F (F = >75-100% remaining) | D (D = >10- 25% remaining) | < 25
28 | CC(C)n1ccc(-c2c(-c3ccc4c(c3)CN(C3CCC(=O)NC3=O)C4=O)ncn2C)n1 (stereo not shown) [Example 487] | ≥ 25 | F (F = >75-100% remaining) | E (E = >25-75% remaining) | < 25
29 | Cn1cnc(-c2ccc3c(c2)CN(C2CCC(=O)NC2=O)C3=O)c1-c1ccc2occc2c1 (stereo not shown) [Example 489] | < 25 | E (E = >25-75% remaining) | C (C = 0-10% remaining) | < 25
30 | Cn1cnc(-c2ccc3c(c2)CN(C2CCC(=O)NC2=O)C3=O)c1-c1ccc2ncnn2c1 (stereo not shown) [Example 490] | ≥ 25 | F (F = >75-100% remaining) | E (E = >25-75% remaining) | ≥ 25
31 | CC(C)Cn1cc(-c2c(-c3ccc4c(c3)CN(C3CCC(=O)NC3=O)C4=O)ncn2C)cn1 (stereo not shown) [Example 491] | ≥ 25 | E (E = >25-75% remaining) | D (D = >10- 25% remaining) | < 25
32 | Cn1cnc(-c2ccc3c(c2)CN(C2CCC(=O)NC2=O)C3=O)c1-c1cnn(C(C)(C)C)c1 (stereo not shown) [Example 492] | ≥ 25 | F (F = >75-100% remaining) | F (F = >75-100% remaining) | ≥ 25
33 | Cn1cnc(-c2ccc3c(c2)CN(C2CCC(=O)NC2=O)C3=O)c1-c1ccc2cccnc2c1 (stereo not shown) [Example 493] | ≥ 25 | F (F = >75-100% remaining) | D (D = >10- 25% remaining) | < 25
34 | Cn1cnc(-c2ccc3c(c2)CN(C2CCC(=O)NC2=O)C3=O)c1-c1ccc2nccnc2c1 (stereo not shown) [Example 494] | ≥ 25 | F (F = >75-100% remaining) | E (E = >25-75% remaining) | ≥ 25
35 | Cn1cnc(-c2ccc3c(c2)CN(C2CCC(=O)NC2=O)C3=O)c1-c1ccc2c(ccn2C)c1 (stereo not shown) [Example 496] | < 25 | E (E = >25-75% remaining) | C (C = 0-10% remaining) | < 25
36 | Cn1cnc(-c2ccc3c(c2)CN(C2CCC(=O)NC2=O)C3=O)c1-c1cnn(CC(F)F)c1 (stereo not shown) [Example 497] | ≥ 25 | F (F = >75-100% remaining) | D (D = >10- 25% remaining) | ≥ 25
37 | Cn1cnc(-c2ccc3c(c2)CN(C2CCC(=O)NC2=O)C3=O)c1-c1ccc2cnn(C)c2c1 (stereo not shown) [Example 498] | < 25 | F (F = >75-100% remaining) | D (D = >10- 25% remaining) | < 25
